Earlier results, collected in publication PMC2233745 (The Journal of General Physiology, 2001).

Tested on: high Km PDE
Details: high Km PDE in GH3 and GH4C1 cells; ref Gautvik et al. 1982; cited from earlier work

Nc1ncnc2c1ncn2[C@@H]1O[C@@H]2COP(=O)(O)O[C@H]2[C@H]1O [cAMP]
Km: 28.6 µM
